US20080182859A1 (Curis, Inc., priority 2006, published 2008)
Where a name gives a salt, the structure may show the parent alone.

Columns and labels:
Assay type in all cases: cell-based
sonic hedgehog pathway [1] = assay: Hedgehog pathway Gli-luciferase reporter assay, S12 cells; conditions: S12 mouse embryonic mesenchymal cells, read-out: S12 Avg. EC50
Summary of the method: (§1)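 Stable Gli-promoter luciferase reporter lines (human HepM, Daoy; mouse S12) plated at 10,000–20,000 cells/well, switched to 0.5% FBS after 48–72 h, then given compound (1–5 μM; 11-point 1:3 dose curves) with or without octyl-modified hedgehog protein (1–5 ng/ml) for 24 h. Luminescence read; AMAX vs plate controls and EC50 derived.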

sonic hedgehog pathway [2] = assay: Hedgehog pathway Gli-luciferase reporter assay, TM3 cells; conditions: TM3 mouse Leydig cells
Summary of the method: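 Luminescence read-out of gli-promoter luciferase in stably transfected cells; 11-point 1:3 dose curves, 24 h compound exposure in 0.5% FBS, ± octyl-modified Hh protein 1–5 ng/ml. AMAX as % of plate low/high controls; EC50 from curve; >20% AMAX counted active.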

sonic hedgehog pathway [3] = assay: Human hedgehog reporter assay Daoy-GliLuc (DGL); conditions: Daoy human medulloblastoma cells, Gli-luciferase reporter; read-out: Daoy Avg. EC50
Summary of the method: as §1

sonic hedgehog pathway [4] = assay: Human hedgehog reporter assay HEPM-GliLuc (HGL); conditions: HepM human embryonic palatal mesenchymal cells, Gli-luciferase reporter
Summary of the method: as §1

Measured: EC50

CN[C@H]1CC[C@@H](N(Cc2cc(-c3ccnc(C(N)=O)c3)ccc2OC)C(=O)c2sc3c(F)ccc(F)c3c2Cl)CC1 [354 (R17)]
< 50 nM: all assays above

CN[C@H]1CC[C@@H](N(Cc2cc(-c3cccnc3)ccc2OC)C(=O)c2sc3cccc(F)c3c2Cl)CC1 [360 (R16), 3-Chloro-4-fluoro-benzo[b]thiophene-2-carboxylic acid (2-methoxy-5-pyridin-3-yl-benzyl)-(4-methylamino-cyclohexyl)-amide dihydrochloride]
< 50 nM: all assays above

CN[C@H]1CC[C@@H](N(Cc2cc(-c3ccc(N)nc3)ccc2OC)C(=O)c2sc3cccc(F)c3c2Cl)CC1 [362 (R13), 3-Chloro-4-fluoro-benzo[b]thiophene-2-carboxylic acid [5-(6-amino-pyridin-3-yl)-2-methoxy-benzyl]-(4-methylamino-cyclohexyl)-amide dihydrochloride]
< 50 nM: all assays above

CN[C@H]1CC[C@@H](N(Cc2cc(-c3ccc(C(C)=O)cc3)ccc2OC)C(=O)c2sc3ccccc3c2Cl)CC1 [Compound 303, 3-Chloro-benzo[b]thiophene-2-carboxylic acid (4′-acetyl-4-methoxy-biphenyl-3-ylmethyl)-(4-methylamino-cyclohexyl)-amide hydrochloride]
< 50 nM: all assays above

CN[C@H]1CC[C@@H](N(Cc2cc(-c3ccc(CO)cc3)ccc2OC)C(=O)c2sc3ccccc3c2Cl)CC1 [Compound 329, 3-Chloro-benzo[b]thiophene-2-carboxylic acid (4′-hydroxymethyl-4-methoxy-biphenyl-3-ylmethyl)-(4-methylamino-cyclohexyl)-amide hydrochloride]
< 50 nM: sonic hedgehog pathway [1] | sonic hedgehog pathway [2] | sonic hedgehog pathway [4]

CN[C@H]1CC[C@@H](N(Cc2cc(-c3ccc(C(C)=O)cc3)ccc2OC)C(=O)c2sc3c(F)ccc(F)c3c2Cl)CC1 [Compound 332, 3-Chloro-4,7-difluoro-benzo[b]thiophene-2-carboxylic acid (4′-acetyl-4-methoxy-biphenyl-3-ylmethyl)-(4-methylamino-cyclohexyl)-amide hydrochloride]
< 50 nM: all assays above

CN[C@H]1CC[C@@H](N(Cc2cc(-c3ccc(C(=O)N(C)C)cc3)ccc2OC)C(=O)c2sc3c(F)ccc(F)c3c2Cl)CC1 [Compound 333, 3-Chloro-4,7-difluoro-benzo[b]thiophene-2-carboxylic acid (4′-dimethylcarbamoyl-4-methoxy-biphenyl-3-ylmethyl)-(4-methylamino-cyclohexyl)-amide hydrochloride]
< 50 nM: all assays above

CN[C@H]1CC[C@@H](N(Cc2cc(-c3ccnc(N)c3)ccc2OC)C(=O)c2sc3c(F)ccc(F)c3c2Cl)CC1 [Compound 355]
< 50 nM: sonic hedgehog pathway [1] | sonic hedgehog pathway [2] | sonic hedgehog pathway [4]

CN[C@H]1CC[C@@H](N(Cc2cc(-c3ccc(NS(C)(=O)=O)nc3)ccc2OC)C(=O)c2sc3c(F)ccc(F)c3c2Cl)CC1 [Compound R10, 3-Chloro-4,7-difluoro-benzo[b]thiophene-2-carboxylic acid [5-(6-methanesulfonylamino-pyridin-3-yl)-2-methoxy-benzyl]-(4-methylamino-cyclohexyl)-amide dihydrochloride]
< 50 nM: sonic hedgehog pathway [1] | sonic hedgehog pathway [2] | sonic hedgehog pathway [4]
